Measurements: US9920010B2, “CXCR7 receptor modulators” (IDORSIA PHARMACEUTICALS LTD, priority 2013, dated 2018)
Where a name gives a salt, the structure may show the parent alone.

Molecular target: T1, CXCR7 (Homo sapiens, UniProt P25106)
T1 construct: host or cells: CHO-K1 (PathHunter CHO-K1 CXCR7 b-arrestin cell line, stably transfected)
Experiment: PathHunter CHO-K1 CXCR7 b-arrestin recruitment assay (CXCR7 agonistic activity)
Type: cell-based
Details: PathHunter CHO-K1 CXCR7 b-arrestin cell line
Outline: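 Stable CHO-K1 line with C-terminally ProLink-tagged CXCR7 and β-arrestin 2–EA fusion; β-arrestin recruitment restores β-gal activity, read by chemiluminescence after 1 h RT detection. Cells seeded 24 h, starved in OPTIMEM 3–4 h, exposed to compounds 90 min at 37 °C in HBSS/HEPES/BSA. Geometric-mean EC50 from repeated measurements.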

T1 sequence (P25106 whole entry): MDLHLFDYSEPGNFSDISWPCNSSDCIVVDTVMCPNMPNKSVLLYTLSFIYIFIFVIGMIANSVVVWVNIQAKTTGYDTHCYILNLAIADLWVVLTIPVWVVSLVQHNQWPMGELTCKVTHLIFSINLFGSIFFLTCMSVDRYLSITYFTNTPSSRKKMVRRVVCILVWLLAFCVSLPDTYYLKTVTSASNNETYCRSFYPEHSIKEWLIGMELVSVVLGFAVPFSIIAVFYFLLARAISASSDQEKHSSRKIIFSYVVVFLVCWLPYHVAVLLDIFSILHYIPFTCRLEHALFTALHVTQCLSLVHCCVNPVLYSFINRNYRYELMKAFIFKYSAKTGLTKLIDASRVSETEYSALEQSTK
T1 sequence (P32121 whole entry partner): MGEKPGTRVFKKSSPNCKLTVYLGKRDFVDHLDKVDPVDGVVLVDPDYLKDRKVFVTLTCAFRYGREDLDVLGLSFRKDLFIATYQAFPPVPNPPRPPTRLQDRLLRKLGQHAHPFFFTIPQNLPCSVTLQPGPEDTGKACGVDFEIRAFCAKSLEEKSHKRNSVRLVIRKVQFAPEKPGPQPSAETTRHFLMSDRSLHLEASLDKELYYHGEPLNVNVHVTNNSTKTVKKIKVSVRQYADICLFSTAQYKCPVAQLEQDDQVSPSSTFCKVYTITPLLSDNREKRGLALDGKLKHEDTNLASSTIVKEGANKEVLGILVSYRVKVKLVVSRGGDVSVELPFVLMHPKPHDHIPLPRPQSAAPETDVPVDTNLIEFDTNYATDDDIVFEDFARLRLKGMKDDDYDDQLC

| Compound | EC50 [nM] |
| --- | --- |
| CC(C)(C)OC(=O)N1CCC(N(Cc2ccccc2C(F)(F)F)C(=O)CNc2cccc3c2CCN(CC2CC2)C3)CC1 [Example 252, 4-[[2-(2-Cyclopropylmethyl-1,2,3,4-tetrahydro-isoquinolin-5-ylamino)-acetyl]-(2-trifluoromethyl-benzyl)-amino]-piperidine-1-carboxylic acid tert-butyl ester] | 426 |
| CN(C)CCN(Cc1ccccc1C(F)(F)F)C(=O)C1(Nc2cccc3c2CCN(CC2CC2)C3)CC1 [Example 292, 1-(2-Cyclopropylmethyl-1,2,3,4-tetrahydro-isoquinolin-5-ylamino)-cyclopropanecarboxylic acid (2-dimethylamino-ethyl)-(2-trifluoromethyl-benzyl)-amide] | 103 |
| CCN1CCc2cccc(NCC(=O)N(CCN(C)C)Cc3ccc(C)cn3)c2C1 [compound 527] | 162 |
| CC(C)(O)CN(Cc1ncccc1Cl)C(=O)/C=C/c1cccc2c1CCN(C(=O)[C@H]1C[C@H]1F)C2 (racemic) [Example 331, rac-(E)-N-(3-Chloro-pyridin-2-ylmethyl)-3-[2-((1R*,2R*)-2-fluoro-cyclopropanecarbonyl)-1,2,3,4-tetrahydro-isoquinolin-5-yl]-N-(2-hydroxy-2-methyl-propyl)-acrylamide] | 314 |
| CN1CCCC1CCN(Cc1ccccc1)C(=O)Cc1cccc2c1CCN(CC1CC1)C2 (racemic) [Example 4, rac-N-Benzyl-2-(2-cyclopropylmethyl-1,2,3,4-tetrahydro-isoquinolin-5-yl)-N-[2-(1-methyl-pyrrolidin-2-yl)-ethyl]-acetamide] | 47 |
| CN(C)CCN(Cc1ccccc1)C(=O)CNc1cccc2c1CCN(CC1CCCCC1)C2 [compound 124] | 52 |
| NC(=O)CCN(Cc1ccccc1)C(=O)/C=C/c1cccc2c1CCN(CC1CC1)C2 [Example 140, (E)-N-Benzyl-N-(2-carbamoyl-ethyl)-3-(2-cyclopropylmethyl-1,2,3,4-tetrahydro-isoquinolin-5-yl)-acrylamide dihydrochloride] | 54 |
| CCN1CCc2cccc(NCC(=O)N(CCC(C)C)Cc3ccccc3C(F)(F)F)c2C1 [compound 513] | 377 |
| CCN1CCc2cccc(NCC(=O)N(CCN(C)C)Cc3ccc(F)cn3)c2C1 [compound 529] | 174 |
| CCN1CCc2cccc(NCC(=O)N(CCN(C)C)Cc3cc(C)on3)c2C1 [compound 535] | 355 |
| CCN1CCc2cccc(NCC(=O)N(CCN(C)C)Cc3nccs3)c2C1 [compound 541] | 175 |
| O=C(CNc1cccc2c1CN(CC1CC1)CC2)N(CCN1CCC(F)(F)CC1)Cc1ccccc1C(F)(F)F [compound 474, 2-(2-Cyclopropylmethyl-1,2,3,4-tetrahydro-isoquinolin-8-ylamino)-N-[2-(4,4-difluoro-piperidin-1-yl)-ethyl]-N-(2-trifluoromethyl-benzyl)-acetamide] | 47 |
| CCC(=O)N1CCc2c(cccc2NCC(=O)N(CCN(C)C)Cc2ccc(Cl)cc2)C1 [Example 19, N-(4-Chloro-benzyl)-N-(2-dimethylamino-ethyl)-2-(2-propionyl-1,2,3,4-tetrahydro-isoquinolin-5-ylamino)-acetamide] | 102 |

The next molecules have a lower EC50 than those just listed; values first:

| EC50 [nM] | Compound |
| --- | --- |
| 9 | CNCCN(Cc1ncccc1Cl)C(=O)CNc1cccc2c1CCN(CC1CC1)C2 [compound 436, N-(3-Chloro-pyridin-2-ylmethyl)-2-(2-cyclopropylmethyl-1,2,3,4-tetrahydro-isoquinolin-5-ylamino)-N-(2-methylamino-ethyl)-acetamide] |
| 4 | CN(C)CCN(Cc1ncccc1Cl)C(=O)CNc1cccc2c1CCN(CC1CC1)C2 [Example 39, N-(3-Chloro-pyridin-2-ylmethyl)-2-(2-cyclopropylmethyl-1,2,3,4-tetrahydro-isoquinolin-5-ylamino)-N-(2-dimethylamino-ethyl)-acetamide] |
| 10 | CN(C)CCN(Cc1ncccc1Cl)C(=O)CNc1cccc2c1CN(C1CCC1)CC2 [compound 455, N-(3-Chloro-pyridin-2-ylmethyl)-2-(2-cyclobutyl-1,2,3,4-tetrahydro-isoquinolin-8-ylamino)-N-(2-dimethylamino-ethyl)-acetamide] |
| 32 | O=C(CNc1cccc2c1CN(CC1CC1)CC2)N(CC(=O)N1CC(F)(F)C1)Cc1ccccc1C(F)(F)F [compound 482, 2-(2-Cyclopropylmethyl-1,2,3,4-tetrahydro-isoquinolin-8-ylamino)-N-[2-(3,3-difluoro-azetidin-1-yl)-2-oxo-ethyl]-N-(2-trifluoromethyl-benzyl)-acetamide] |
| 7 | CCN1CCc2cccc(NCC(=O)N(CCN3CCCC3)Cc3ccccc3C(F)(F)F)c2C1 [compound 489, 2-(2-Ethyl-1,2,3,4-tetrahydro-isoquinolin-8-ylamino)-N-(2-pyrrolidin-1-yl-ethyl)-N-(2-trifluoromethyl-benzyl)-acetamide] |
| 8 | CNCCN(Cc1ccccc1C(F)(F)F)C(=O)CNc1cccc2c1CCN(CC1CC1)C2C (racemic) [compound 382] |
| 9 | CNCCN(Cc1ccccc1C(F)(F)F)C(=O)CNc1cccc2c1CCN(C(=O)OC)C2 [compound 394, 5-({[(2-Methylamino-ethyl)-(2-trifluoromethyl-benzyl)-carbamoyl]-methyl}-amino)-3,4-dihydro-1H-isoquinoline-2-carboxylic acid methyl ester] |
| 2 | CN1CCCC1CCN(Cc1ccccc1C(F)(F)F)C(=O)CNc1cccc2c1CCN(CC1CC1)C2 (centres unmarked) [Example 213, 2-(2-Cyclopropylmethyl-1,2,3,4-tetrahydro-isoquinolin-5-ylamino)-N-[2-(1-methyl-pyrrolidin-2-yl)-ethyl]-N-(2-trifluoromethyl-benzyl)-acetamide] |
| 3 | O=C(CNc1cccc2c1CCN(CC1CC1)C2)N(Cc1ccccc1C(F)(F)F)C[C@@H]1CCNC1 [compound 379] |
| 29 | C#CCOC(=O)N1CCc2c(cccc2NCC(=O)N(CCNC)Cc2ncccc2C(F)(F)F)C1 [compound 421, 5-({[(2-Methylamino-ethyl)-(3-trifluoromethyl-pyridin-2-ylmethyl)-carbamoyl]-methyl}-amino)-3,4-dihydro-1H-isoquinoline-2-carboxylic acid prop-2-ynyl ester] |
| 16 | CN(C)CCN(Cc1ncccc1C(F)(F)F)C(=O)CNc1ccc(F)c2c1CCN(CC1CC1)C2 [Example 289, 2-(2-Cyclopropylmethyl-8-fluoro-1,2,3,4-tetrahydro-isoquinolin-5-ylamino)-N-(2-dimethylamino-ethyl)-N-(3-trifluoromethyl-pyridin-2-ylmethyl)-acetamide] |
| 12 | C=CCN1CCc2c(CCC(=O)N(CCN(C)C)Cc3ccccc3C(F)(F)F)cccc2C1 [Example 349, 3-(2-Allyl-1,2,3,4-tetrahydro-isoquinolin-5-yl)-N-(2-dimethylamino-ethyl)-N-(2-trifluoromethyl-benzyl)-propionamide] |
| 21 | CN(C)CCN(Cc1ccccc1OC(F)(F)F)C(=O)CNc1cccc2c1CN(CC1CC1)CC2 [compound 472, 2-(2-Cyclopropylmethyl-1,2,3,4-tetrahydro-isoquinolin-8-ylamino)-N-(2-dimethylamino-ethyl)-N-(2-trifluoromethoxy-benzyl)-acetamide] |
